# Laboratory results taken from article PMC11313788, “A Series of Novel 1-H-isoindole-1,3(2H)-dione Derivatives as Acetylcholinesterase and Butyrylcholinesterase Inhibitors: In Silico, Synthesis and In Vitro Studies” (Molecules, 2024).
# Tests used:
# [1] = target: T1, butyrylcholinesterase (BuChE) from horse serum (Equus caballus, UniProt P81908); experiment: biochemical; details: for IC50: Ellman's method, 96-well plate, enzyme with compound incubated 20 min at 37 °C, phosphate buffer pH 8.0, three measurements; for Selectivity BuChE: ratio of the IC50 values (AChE/BuChE), definition not given
# T1 construct: butyrylcholinesterase (BuChE) from horse serum; from tissue; host or cells: horse serum
# T1 sequence (P81908 whole entry): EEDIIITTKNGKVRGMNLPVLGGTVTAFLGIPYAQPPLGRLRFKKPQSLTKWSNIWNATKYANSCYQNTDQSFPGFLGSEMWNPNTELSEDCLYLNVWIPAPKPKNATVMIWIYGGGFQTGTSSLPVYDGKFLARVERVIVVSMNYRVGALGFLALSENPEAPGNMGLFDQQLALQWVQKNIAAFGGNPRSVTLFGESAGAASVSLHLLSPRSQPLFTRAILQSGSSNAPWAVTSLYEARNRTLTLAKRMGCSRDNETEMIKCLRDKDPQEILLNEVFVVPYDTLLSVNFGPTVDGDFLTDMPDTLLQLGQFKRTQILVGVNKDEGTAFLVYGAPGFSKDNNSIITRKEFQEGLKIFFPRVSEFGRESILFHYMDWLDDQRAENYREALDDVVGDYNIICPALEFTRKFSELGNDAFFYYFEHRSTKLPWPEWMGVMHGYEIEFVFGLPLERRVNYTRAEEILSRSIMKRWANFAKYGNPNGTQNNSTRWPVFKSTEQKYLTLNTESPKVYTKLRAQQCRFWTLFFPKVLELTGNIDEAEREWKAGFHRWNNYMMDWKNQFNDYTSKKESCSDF
# Procedure: (§1) To determine the inhibitory properties of the tested compounds against acetylcholinesterase and butyrylcholinesterase, Ellman’s method was used. […] For each system, measurements were carried out three times. Dose–response curve functions were fitted to the obtained results.
# (§2) The following reagents were used to evaluate the inhibiting activity: acetylcholinesterase (AChE) from electrophorus electricus (Sigma-Aldrich, Saint Louis, MO, USA), butyrylcholinesterase (BuChE) from horse serum, acetylthiocholine iodide (Sigma-Aldrich, Saint Louis, MO, USA), butyrylthiocholine iodide (Sigma-Aldrich, Saint Louis, MO, USA), 5,5′-Dithiobis-(2-nitrobenzoic acid) (DTNB, Sigma-Aldrich, Saint Louis, MO, USA). The enzymes were prepared by dissolving in phosphate buffer, pH = 8.0) with the final concentration 2 U/mL for AChE and 4 U/mL for BuChE. The stock solutions of acetylthiocholine iodide (10^−3 mol/dm^3), butyrylthiocholine iodide (10^−3 mol/dm^3) and DTNB (10^−3 mol/dm^3) were prepared in phosphate buffer. The inhibitory activity of derivatives was evaluated by Ellman’s colorimetric method in a 96-well plate. First, the enzyme solution with the tested compound was incubated for 20 min at 37 °C. Next, acetylthiocholine iodide or butyrylthiocholine iodide and DTNB were added.
# [2] = target: T2, acetylcholinesterase (AChE) from electrophorus electricus (Electrophorus electricus, UniProt O42275); experiment: biochemical; assay type: biochemical; details: for IC50: Ellman's method, 96-well plate, enzyme with compound incubated 20 min at 37 °C, phosphate buffer pH 8.0, three measurements; for Selectivity AChE: ratio of the IC50 values (BuChE/AChE), definition not given
# T2 construct: purchased Sigma-Aldrich
# T2 sequence (O42275 24-633): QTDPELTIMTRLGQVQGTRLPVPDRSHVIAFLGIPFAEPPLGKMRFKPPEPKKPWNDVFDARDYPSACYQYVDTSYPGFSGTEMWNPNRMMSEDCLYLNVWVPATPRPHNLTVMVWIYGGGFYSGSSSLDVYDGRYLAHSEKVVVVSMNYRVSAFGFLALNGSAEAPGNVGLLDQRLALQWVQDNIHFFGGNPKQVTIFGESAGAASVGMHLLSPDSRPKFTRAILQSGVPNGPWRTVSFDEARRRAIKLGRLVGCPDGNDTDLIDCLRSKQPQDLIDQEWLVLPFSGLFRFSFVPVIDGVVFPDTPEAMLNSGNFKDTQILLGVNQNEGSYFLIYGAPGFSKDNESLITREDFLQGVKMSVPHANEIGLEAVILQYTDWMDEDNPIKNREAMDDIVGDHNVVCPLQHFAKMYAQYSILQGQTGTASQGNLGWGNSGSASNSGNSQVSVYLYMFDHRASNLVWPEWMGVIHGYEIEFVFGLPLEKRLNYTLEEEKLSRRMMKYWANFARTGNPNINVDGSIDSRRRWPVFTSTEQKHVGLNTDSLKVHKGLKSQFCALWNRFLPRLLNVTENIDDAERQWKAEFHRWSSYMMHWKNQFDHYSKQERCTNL
# Procedure: as §1, §2
Structure (SMILES),IC50 [1],Selectivity BuChE [1],IC50 [2],Selectivity AChE [2],AChE inhibitory activity compared to derivative I ([2]; compared to the derivative with a benzene ring (I))
"O=C1c2ccccc2C(=O)N1CCN1CCN(c2ccccc2)CC1 [Compound I, N-[2-(4-phenyl-1-piperazinyl)ethyl]-1H-isoindole-1,3(2H)-dione]",24.7 ± 1.74 µM,0.05,1.12 ± 0.3 µM,22.02,–
"O=C1c2ccccc2C(=O)N1CCN1CCOCC1 [Compound V, N-(2-morpholine)ethyl-1H-isoindole-1,3(2H)-dione]",> 1000 µM,–,16.2 ± 2.37 µM,–,–
O=C1c2ccccc2C(=O)N1CCN1CCc2ccccc2C1 [Compound VI],52.1 ± 9.73 µM,0.02,1.14 ± 0.17 µM,45.71,–
"O=C1c2ccccc2C(=O)N1CCN1CCN(c2ccc(C(F)(F)F)cc2)CC1 [II, N-{2-[4-(4-trifluoromethylphenyl)-1-piperazinyl]ethyl}-1H-isoindole-1,3(2H)-dione]",24.7 ± 3.78 µM,0.09,2.31 ± 0.36 µM,10.70,–
"O=C1c2ccccc2C(=O)N1CCN1CCN(C(c2ccccc2)c2ccccc2)CC1 [III, N-{2-[4-(4-diphenylomethylo)-1-piperazinyl]ethyl}-1H-isoindole-1,3(2H)-dione]",21.2 ± 4.84 µM,0.09,1.94 ± 0.43 µM,10.95,–
O=C1c2ccccc2C(=O)N1CCN1CCN(c2ncccn2)CC1 [IV],68.9 ± 7.82 µM,0.06,3.9 ± 0.43 µM,17.66,about four-times less activity
